# According to PMC8279981, “A first-in-human, phase 1 study of the NEDD8 activating enzyme E1 inhibitor TAS4464 in patients with advanced solid tumors” (Investigational New Drugs, 2021):
# Test system: patients with advanced or metastatic solid tumors
# Assay: Phase 1 study: treatment-related adverse events (NCI CTCAE v4.03)
# Type: in vivo, human
# Details: for Anemia (treatment-related adverse event) / Blood bilirubin increased (treatment-related adverse event) / Decreased appetite (treatment-related adverse event) / Diarrhea (treatment-related adverse event) / Fatigue (treatment-related adverse event) / GGT increased (treatment-related adverse event) / Hypoalbuminemia (treatment-related adverse event) / Malaise (treatment-related adverse event) / Nausea (treatment-related adverse event) / Neuropathy peripheral (treatment-related adverse event) / Pyrexia (treatment-related adverse event) / Rash (treatment-related adverse event) / Vomiting (treatment-related adverse event) / WBC decreased (treatment-related adverse event) / ALP increased (treatment-related adverse event) / ALT increased (treatment-related adverse event) / AST increased (treatment-related adverse event): Grade ≥ 3
# Experimental: The highest non-severely toxic dose was derived from a dog toxicology study and was used to calculate a clinical starting dose of 10 mg/m^2, which corresponds to one-sixth of the human-equivalent dose. The maximum tolerated dose (MTD) of TAS4464 was investigated using an accelerated titration design. Initially, the starting TAS4464 dose was 10 mg/m^2 and was followed by an initial accelerated stage (i.e., weekly dosing phase) with 100% dose-step increments (level 1: 10 mg/m^2, level 2: 20 mg/m^2, level 3: 40 mg/m^2, and level 4: 56 mg/m^2). The 100% dose-step increments continued until the occurrence of a grade ≥ 2 drug-related toxicity within Cycle 1; dose-limiting toxicity (DLT) within Cycle 1; the next dose level reaching 60 mg/m^2; or any safety concerns. Thereafter, 40% increments were employed in the standard stage.
# In the standard stage, three to six patients were to be enrolled, and the dose was escalated in 40% increments if none of the first three patients experienced a DLT. If one patient experienced a DLT, three additional patients were to be enrolled at the same dose level. If two of three or two of six patients experienced a DLT, the dose escalation was to be ceased. […] Additionally, DLT criteria regarding abnormal liver function and discontinuation criteria for study drug administration were added. The TAS4464 dose level for Day 1 of Cycle 1 was then set to 40 mg/m^2 (level 3).
# Therefore, TAS4464 was administered every 7 days by 1-h intravenous infusion (± 10 min) at the dose assigned to each level. Study treatment was repeated every 28 days. The dosing regimens of each cohort are summarized in Supplementary Fig. 1.
# Secondary objectives included assessment of AEs, treatment-related AEs, objective response rate (ORR), disease control rate (DCR), progression-free survival (PFS), and PK, pharmacodynamic, and pharmacogenomic (PGx) parameters with TAS4464 administration. The National Cancer Institute Common Terminology Criteria for Adverse Events (NCI CTCAE) v4.03 [17] was used to assess the severity of AEs. […] RECIST v1.1 [16] was used to determine clinical response, and all computed tomography images were assessed by the physician at the study site after completion of the imaging procedure. The ORR was defined as the percentage of patients with the best overall response of complete response (CR) or partial response (PR). The DCR was the percentage of patients with a best overall response of CR, PR, stable disease (SD), or non-CR/non-progressive disease (PD). PFS was defined as the time from the date of enrollment until the date of investigator-assessed radiological disease progression or death due to any cause, whichever occurred first.
# [1] = weekly dosing Level 1 (10 mg/m^2), n = 1
# [2] = weekly dosing Level 2 (20 mg/m^2), n = 1
# [3] = weekly dosing Level 3 (40 mg/m^2), n = 3
# [4] = weekly dosing Level 4 (56 mg/m^2), n = 5
# [5] = weekly dosing with lead-in Level 3 (20 → 40 mg/m^2), n = 3
# [6] = weekly dosing with lead-in Level 4 (20 → 56 mg/m^2), n = 3
structure (smiles),measurement,setting,value
CCOc1cccc(F)c1C#Cc1cn([C@@H]2O[C@H](CNS(N)(=O)=O)[C@@H](O)[C@H]2O)c2ncnc(N)c12 [TAS4464],Anemia (treatment-related adverse event),"Total, N = 16",0 n (%)
same,Blood bilirubin increased (treatment-related adverse event),"Total, N = 16",0 n (%)
same,Decreased appetite (treatment-related adverse event),"Total, N = 16",0 n (%)
same,Diarrhea (treatment-related adverse event),"Total, N = 16",0 n (%)
same,Fatigue (treatment-related adverse event),"Total, N = 16",0 n (%)
same,GGT increased (treatment-related adverse event),"Total, N = 16",3 (18.8) n (%)
same,Hypoalbuminemia (treatment-related adverse event),"Total, N = 16",0 n (%)
same,Malaise (treatment-related adverse event),"Total, N = 16",0 n (%)
same,Nausea (treatment-related adverse event),"Total, N = 16",0 n (%)
same,Neuropathy peripheral (treatment-related adverse event),"Total, N = 16",0 n (%)
same,Pyrexia (treatment-related adverse event),"Total, N = 16",0 n (%)
same,Rash (treatment-related adverse event),"Total, N = 16",0 n (%)
same,Vomiting (treatment-related adverse event),"Total, N = 16",0 n (%)
same,WBC decreased (treatment-related adverse event),"Total, N = 16",1 (6.3) n (%)
same,ALP increased (treatment-related adverse event),[1],0 n (%)
same,ALT increased (treatment-related adverse event),[1],0 n (%)
same,AST increased (treatment-related adverse event),[1],0 n (%)
same,Anemia (treatment-related adverse event),[1],0 n (%)
same,Blood bilirubin increased (treatment-related adverse event),[1],0 n (%)
same,Decreased appetite (treatment-related adverse event),[1],0 n (%)
same,Diarrhea (treatment-related adverse event),[1],0 n (%)
same,Fatigue (treatment-related adverse event),[1],0 n (%)
same,GGT increased (treatment-related adverse event),[1],0 n (%)
same,Hypoalbuminemia (treatment-related adverse event),[1],0 n (%)
same,Malaise (treatment-related adverse event),[1],0 n (%)
same,Nausea (treatment-related adverse event),[1],0 n (%)
same,Neuropathy peripheral (treatment-related adverse event),[1],0 n (%)
same,Pyrexia (treatment-related adverse event),[1],0 n (%)
same,Rash (treatment-related adverse event),[1],0 n (%)
same,Vomiting (treatment-related adverse event),[1],0 n (%)
same,WBC decreased (treatment-related adverse event),[1],0 n (%)
same,ALP increased (treatment-related adverse event),[2],0 n (%)
same,ALT increased (treatment-related adverse event),[2],0 n (%)
same,AST increased (treatment-related adverse event),[2],0 n (%)
same,Anemia (treatment-related adverse event),[2],0 n (%)
same,Blood bilirubin increased (treatment-related adverse event),[2],0 n (%)
same,Decreased appetite (treatment-related adverse event),[2],0 n (%)
same,Diarrhea (treatment-related adverse event),[2],0 n (%)
same,Fatigue (treatment-related adverse event),[2],0 n (%)
same,GGT increased (treatment-related adverse event),[2],0 n (%)
same,Hypoalbuminemia (treatment-related adverse event),[2],0 n (%)
same,Malaise (treatment-related adverse event),[2],0 n (%)
same,Nausea (treatment-related adverse event),[2],0 n (%)
same,Neuropathy peripheral (treatment-related adverse event),[2],0 n (%)
same,Pyrexia (treatment-related adverse event),[2],0 n (%)
same,Rash (treatment-related adverse event),[2],0 n (%)
same,Vomiting (treatment-related adverse event),[2],0 n (%)
same,WBC decreased (treatment-related adverse event),[2],0 n (%)
same,ALP increased (treatment-related adverse event),[3],0 n (%)
same,ALT increased (treatment-related adverse event),[3],1 (33.3) n (%)
same,AST increased (treatment-related adverse event),[3],1 (33.3) n (%)
same,Anemia (treatment-related adverse event),[3],0 n (%)
same,Blood bilirubin increased (treatment-related adverse event),[3],0 n (%)
same,Decreased appetite (treatment-related adverse event),[3],0 n (%)
same,Diarrhea (treatment-related adverse event),[3],0 n (%)
same,Fatigue (treatment-related adverse event),[3],0 n (%)
same,GGT increased (treatment-related adverse event),[3],0 n (%)
same,Hypoalbuminemia (treatment-related adverse event),[3],0 n (%)
same,Malaise (treatment-related adverse event),[3],0 n (%)
same,Nausea (treatment-related adverse event),[3],0 n (%)
same,Neuropathy peripheral (treatment-related adverse event),[3],0 n (%)
same,Pyrexia (treatment-related adverse event),[3],0 n (%)
same,Rash (treatment-related adverse event),[3],0 n (%)
same,Vomiting (treatment-related adverse event),[3],0 n (%)
same,WBC decreased (treatment-related adverse event),[3],0 n (%)
same,ALP increased (treatment-related adverse event),[4],1 (20.0) n (%)
same,ALT increased (treatment-related adverse event),[4],3 (60.0) n (%)
same,AST increased (treatment-related adverse event),[4],3 (60.0) n (%)
same,Anemia (treatment-related adverse event),[4],0 n (%)
same,Blood bilirubin increased (treatment-related adverse event),[4],0 n (%)
same,Decreased appetite (treatment-related adverse event),[4],0 n (%)
same,Diarrhea (treatment-related adverse event),[4],0 n (%)
same,Fatigue (treatment-related adverse event),[4],0 n (%)
same,GGT increased (treatment-related adverse event),[4],3 (60.0) n (%)
same,Hypoalbuminemia (treatment-related adverse event),[4],0 n (%)
same,Malaise (treatment-related adverse event),[4],0 n (%)
same,Nausea (treatment-related adverse event),[4],0 n (%)
same,Neuropathy peripheral (treatment-related adverse event),[4],0 n (%)
same,Pyrexia (treatment-related adverse event),[4],0 n (%)
same,Rash (treatment-related adverse event),[4],0 n (%)
same,Vomiting (treatment-related adverse event),[4],0 n (%)
same,WBC decreased (treatment-related adverse event),[4],1 (20.0) n (%)
same,ALP increased (treatment-related adverse event),[5],0 n (%)
same,ALT increased (treatment-related adverse event),[5],0 n (%)
same,AST increased (treatment-related adverse event),[5],0 n (%)
same,Anemia (treatment-related adverse event),[5],0 n (%)
same,Blood bilirubin increased (treatment-related adverse event),[5],0 n (%)
same,Decreased appetite (treatment-related adverse event),[5],0 n (%)
same,Diarrhea (treatment-related adverse event),[5],0 n (%)
same,Fatigue (treatment-related adverse event),[5],0 n (%)
same,GGT increased (treatment-related adverse event),[5],0 n (%)
same,Hypoalbuminemia (treatment-related adverse event),[5],0 n (%)
same,Malaise (treatment-related adverse event),[5],0 n (%)
same,Nausea (treatment-related adverse event),[5],0 n (%)
same,Neuropathy peripheral (treatment-related adverse event),[5],0 n (%)
same,Pyrexia (treatment-related adverse event),[5],0 n (%)
same,Rash (treatment-related adverse event),[5],0 n (%)
same,Vomiting (treatment-related adverse event),[5],0 n (%)
same,WBC decreased (treatment-related adverse event),[5],0 n (%)
same,ALP increased (treatment-related adverse event),[6],0 n (%)
same,ALT increased (treatment-related adverse event),[6],1 (33.3) n (%)
same,AST increased (treatment-related adverse event),[6],1 (33.3) n (%)
same,Anemia (treatment-related adverse event),[6],0 n (%)
same,Blood bilirubin increased (treatment-related adverse event),[6],0 n (%)
same,Decreased appetite (treatment-related adverse event),[6],0 n (%)
same,Diarrhea (treatment-related adverse event),[6],0 n (%)
same,Fatigue (treatment-related adverse event),[6],0 n (%)
same,GGT increased (treatment-related adverse event),[6],0 n (%)
same,Hypoalbuminemia (treatment-related adverse event),[6],0 n (%)
same,Malaise (treatment-related adverse event),[6],0 n (%)
same,Nausea (treatment-related adverse event),[6],0 n (%)
same,Neuropathy peripheral (treatment-related adverse event),[6],0 n (%)
same,Pyrexia (treatment-related adverse event),[6],0 n (%)
same,Rash (treatment-related adverse event),[6],0 n (%)
same,Vomiting (treatment-related adverse event),[6],0 n (%)
same,WBC decreased (treatment-related adverse event),[6],0 n (%)
same,"ALT increased, Grade ≥ 3 treatment-related AE",all treated patients,31.3%
same,"ALT increased, all-grade treatment-related AE",all treated patients,68.8%
same,"AST increased, Grade ≥ 3 treatment-related AE",all treated patients,31.3%
same,"AST increased, all-grade treatment-related AE",all treated patients,62.5%
same,"alkaline phosphatase (ALP) increased, all-grade treatment-related AE",all treated patients,43.8%
same,"decreased appetite, all-grade treatment-related AE",all treated patients,31.3%
same,"nausea, all-grade treatment-related AE",all treated patients,43.8%
same,drug-induced liver injury by Hy's law criteria,doses of up to 56 mg/m^2,No patients presented with drug-induced liver injury
same,treatment-related serious AE,"weekly dosing level 4, resolved following TAS4464 dose reduction",ALT increased occurring in one patient
same,serious AEs,whole study,Four serious AEs were reported in three patients
same,deaths or fatal AEs,within the study period,No deaths or fatal AEs occurred
